Laboratory results reported in patent publication US9730906B2, “α-derivatives of cis-monounsaturated fatty acids for use as medicines” (UNIVERSITAT DE LES ILLES BALEARS, priority 2008, dated 2017).

Test system: lung cancer cells (A549)
Experiment: Culture plate invasion model, lung cancer cells (A549)
Format: cell-based, human
Details: 50 μM and 100 μM, different times, vs untreated cells, p<0.05
Procedure: FIG. 5A. Invasive capacity of lung cancer cells (A549) in culture, in the absence (control, C) or presence of OHOD (2-hydroxy-9-cis-octadecenoic acid) at 50 μM (M50) and 100 μM (M100) and at different times.
FIG. 5B. Invasive capacity of lung cancer cells (A549) in culture, in the absence (control, C) or presence of OHOD (2-hydroxy-9-cis-octadecenoic acid) at 50 μM (M50) and 100 μM (M100) and at different times.
Furthermore, α-derivatives of cis-monounsaturated fatty acids are capable of inducing cadherin expression. Cadherin is a cellular adhesion protein. Cells expressing cadherin are often not displaced from their tissue location as they adhere to the surrounding cells. Tumour cells that lose the capacity to synthesise this protein can migrate from the tissue in which they were generated to other body tissues where they can develop a new tumour focus by the process known as metastasis. In treatments with α-derivatives of cis-monounsaturated the fatty acids, a significant increase in cadherin levels was observed (FIG. 4). The invasive capacity of cancer cells was also investigated in a culture plate invasion model. […] Then, an area of the culture dish is scraped and the number of cells invading this region at various times, in the presence and absence of the anti-metastasis compound is counted.

`CCCCCCCC/C=C\CCCCCCC(O)C(=O)O` (stereo not drawn) [OHOD, α-Hydroxy-cis-Δ9-octadecenoic] was tested, and the “invasive capacity (number of invasive cells)” value was “lower invasive capacity”.
